Molecular target: T1, Chk1 (Homo sapiens, UniProt O14757)
T1 construct: purchased Upstate Biotechnology
T1 sequence (O14757 1-476): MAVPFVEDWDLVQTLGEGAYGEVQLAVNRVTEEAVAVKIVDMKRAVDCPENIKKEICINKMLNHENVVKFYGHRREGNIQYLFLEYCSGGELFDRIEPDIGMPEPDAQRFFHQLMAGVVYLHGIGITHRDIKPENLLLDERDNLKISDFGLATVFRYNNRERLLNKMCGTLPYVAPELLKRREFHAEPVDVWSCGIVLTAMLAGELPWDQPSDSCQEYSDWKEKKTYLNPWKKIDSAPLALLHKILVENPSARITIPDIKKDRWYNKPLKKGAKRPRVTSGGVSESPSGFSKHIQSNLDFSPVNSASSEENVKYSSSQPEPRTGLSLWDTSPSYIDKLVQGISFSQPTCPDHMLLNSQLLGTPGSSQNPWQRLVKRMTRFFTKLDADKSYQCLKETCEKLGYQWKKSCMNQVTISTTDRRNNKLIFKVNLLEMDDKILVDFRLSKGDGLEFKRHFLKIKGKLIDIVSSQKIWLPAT
Assay: Chk1 kinase assay: incorporation of γ-33P ATP into immobilized myelin basic protein
Assay type: biochemical
Details: read-out: Chk1 IC50
In short: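 Read-out is scintillation counting of 33P incorporated into plate-bound myelin basic protein. Chk1 runs at 10 nM enzyme with 10 μM ATP, Chk2 at 20 nM with 30 μM ATP, each for 1 hour at room temperature. Duplicate points; IC50 taken as 50% activity reduction, Ki computed from IC50.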

Row | SMILES | IC50
1 | CNC(=O)c1nc(-c2cccc(C(=O)NCc3ccc(OC(F)(F)F)cc3)c2)cnc1N [Example 227, 3-amino-N-methyl-6-(3-{[({4-[(trifluoromethyl)oxy]phenyl}methyl)amino]carbonyl}phenyl)pyrazine-2-carboxamide] | 50 to 1000 nM
2 | CNC(=O)c1nc(-c2cccc(C(=O)NCc3ccc(F)c(C(F)(F)F)c3)c2)cnc1N [Example 228, 3-amino-6-{3-[({[4-fluoro-3-(trifluoromethyl)phenyl]methyl}amino)carbonyl]phenyl}-N-methylpyrazine-2-carboxamide] | 50 to 1000 nM
3 | CNC(=O)c1nc(-c2cccc(C(=O)NCc3ccc(Cl)c(C(F)(F)F)c3)c2)cnc1N [Example 229, 3-amino-6-{3-[({[4-chloro-3-(trifluoromethyl)phenyl]methyl}amino)carbonyl]phenyl}-N-methylpyrazine-2-carboxamide] | 50 to 1000 nM
4 | CNC(=O)c1nc(-c2cccc(C(=O)NCc3ccc(N)cc3)c2)cnc1N [Example 230, 3-amino-6-[3-({[(4-aminophenyl)methyl]amino}carbonyl)phenyl]-N-methylpyrazine-2-carboxamide] | 50 to 1000 nM
5 | CNC(=O)c1nc(-c2cccc(C(=O)NCc3ccccc3N)c2)cnc1N [Example 231, 3-amino-6-[3-({[(2-aminophenyl)methyl]amino}carbonyl)phenyl]-N-methylpyrazine-2-carboxamide] | 50 to 1000 nM
6 | CNC(=O)c1nc(-c2cccc(C(=O)NCc3cccc(N)c3)c2)cnc1N [Example 232, 3-amino-6-[3-({[(3-aminophenyl)methyl]amino}carbonyl)phenyl]-N-methylpyrazine-2-carboxamide] | 50 to 1000 nM
7 | CNC(=O)c1nc(-c2cncnc2)cnc1N [Example 233, 3-amino-N-methyl-6-pyrimidin-5-ylpyrazine-2-carboxamide] | ≥ 10000 nM
8 | CNC(=O)c1nc(-c2cccc(S(C)(=O)=O)c2)cnc1N [Example 234, 3-amino-N-methyl-6-[3-(methylsulfonyl)phenyl]pyrazine-2-carboxamide] | 1000 to 10000 nM
9 | CNC(=O)c1nc(-c2ccc(OC3CCCCO3)cc2)cnc1N (centres unmarked) [Example 235, 3-amino-N-methyl-6-[4-(tetrahydro-2H-pyran-2-yloxy)phenyl]pyrazine-2-carboxamide] | 50 to 1000 nM
10 | CNC(=O)c1nc(-c2ccc(O)cc2)cnc1N [Example 236, 3-amino-6-(4-hydroxyphenyl)-N-methylpyrazine-2-carboxamide] | 50 to 1000 nM
11 | CNC(=O)c1nc(-c2cccc(C(=O)NCc3ccc(S(N)(=O)=O)cc3)c2)cnc1N [Example 237, 3-amino-6-{3-[({[4-(aminosulfonyl)phenyl]methyl}amino)carbonyl]phenyl}-N-methylpyrazine-2-carboxamide] | 50 to 1000 nM
12 | CNC(=O)c1nc(-c2cccc(C(=O)NCc3ccc(N(C)C)cc3)c2)cnc1N [Example 238, 3-amino-6-{3-[({[4-(dimethylamino)phenyl]methyl}amino)carbonyl]phenyl}-N-methylpyrazine-2-carboxamide] | 50 to 1000 nM
13 | CNC(=O)c1nc(-c2cccc(C(=O)NCc3cccc(Br)c3)c2)cnc1N [Example 239, 3-amino-6-[3-({[(3-bromophenyl)methyl]amino}carbonyl)phenyl]-N-methylpyrazine-2-carboxamide] | 50 to 1000 nM
14 | CNC(=O)c1nc(-c2ccc(Cl)c(C(=O)NCc3ccccc3)c2)cnc1N [Example 240, 3-amino-6-(4-chloro-3-{[(phenylmethyl)amino]carbonyl}phenyl)-N-methylpyrazine-2-carboxamide] | 50 to 1000 nM
15 | COC(=O)c1cccc(-c2cnc(N)c(C(=O)NC3CC3)n2)c1 [Example 241, methyl 3-{5-amino-6-[(cyclopropylamino)carbonyl]pyrazin-2-yl}benzoate] | ≥ 10000 nM
16 | CCNC(=O)c1nc(-c2cccc(C(=O)OC)c2)cnc1N [Example 242, methyl 3-{5-amino-6-[(ethylamino)carbonyl]pyrazin-2-yl}benzoate] | 1000 to 10000 nM
17 | CNC(=O)c1nc(-c2cccc(C(=O)NCc3cccc(C)c3C)c2)cnc1N [Example 243, 3-amino-6-[3-({[(2,3-dimethylphenyl)methyl]amino}carbonyl)phenyl]-N-methylpyrazine-2-carboxamide] | 50 to 1000 nM
18 | CNC(=O)c1nc(-c2cccc(C(=O)NCc3ccc(O)c(OC)c3)c2)cnc1N [Example 244, 3-amino-6-{3-[({[4-hydroxy-3-(methyloxy)phenyl]methyl}amino)carbonyl]phenyl}-N-methylpyrazine-2-carboxamide] | 50 to 1000 nM

Row | SMILES | IC50
19 | CNC(=O)c1nc(-c2cccc(C(=O)NCc3ccc(Cl)cc3C)c2)cnc1N [Example 245, 3-amino-6-[3-({[(4-chloro-2-methylphenyl)methyl]amino}carbonyl)phenyl]-N-methylpyrazine-2-carboxamide] | 50 to 1000 nM
20 | CCOc1ccccc1CNC(=O)c1cccc(-c2cnc(N)c(C(=O)NC)n2)c1 [Example 246, 3-amino-6-{3-[({[2-(ethyloxy)phenyl]methyl}amino)carbonyl]phenyl}-N-methylpyrazine-2-carboxamide] | 50 to 1000 nM
21 | CNC(=O)c1nc(-c2cccc(C(=O)NCc3c(Cl)cccc3Oc3ccccc3)c2)cnc1N [Example 247, 3-amino-6-{3-[({[2-chloro-6-(phenyloxy)phenyl]methyl}amino)carbonyl]phenyl}-N-methylpyrazine-2-carboxamide] | 50 to 1000 nM
22 | CNC(=O)c1nc(-c2cccc(C(=O)NCc3cc(Cl)ccc3Cl)c2)cnc1N [Example 248, 3-amino-6-[3-({[(2,5-dichlorophenyl)methyl]amino}carbonyl)phenyl]-N-methylpyrazine-2-carboxamide] | 50 to 1000 nM
23 | CNC(=O)c1nc(-c2cccc(C(=O)NCc3c(OC)cccc3OC)c2)cnc1N [Example 249, 3-amino-6-{3-[({[2,6-bis(methyloxy)phenyl]methyl}amino)carbonyl]phenyl}-N-methylpyrazine-2-carboxamide] | 1000 to 10000 nM
24 | CNC(=O)c1nc(-c2cccc(C(=O)NCc3c(C)cccc3Cl)c2)cnc1N [Example 250, 3-amino-6-[3-({[(2-chloro-6-methylphenyl)methyl]amino}carbonyl)phenyl]-N-methylpyrazine-2-carboxamide] | 50 to 1000 nM
25 | CNC(=O)c1nc(-c2cccc(C(=O)NCc3cc(F)c(F)cc3F)c2)cnc1N [Example 251, 3-amino-N-methyl-6-[3-({[(2,4,5-trifluorophenyl)methyl]amino}carbonyl)phenyl]pyrazine-2-carboxamide] | 50 to 1000 nM
26 | CNC(=O)c1nc(-c2cccc(C(=O)NCC(C)(C)C)c2)cnc1N [Example 252, 3-amino-6-(3-{[(2,2-dimethylpropyl)amino]carbonyl}phenyl)-N-methylpyrazine-2-carboxamide] | 1000 to 10000 nM
27 | CNC(=O)c1nc(-c2cccc(C(=O)NCC3CCCC3)c2)cnc1N [Example 253, 3-amino-6-(3-{[(cyclopentylmethyl)amino]carbonyl}phenyl)-N-methylpyrazine-2-carboxamide] | 50 to 1000 nM
28 | CNC(=O)c1nc(-c2cccc(C(=O)NCc3cc(OC)cc(OC)c3)c2)cnc1N [Example 254, 3-amino-6-{3-[({[3,5-bis(methyloxy)phenyl]methyl}amino)carbonyl]phenyl}-N-methylpyrazine-2-carboxamide] | 50 to 1000 nM
29 | CNC(=O)c1nc(-c2cccc(C(=O)NCc3ccc(S(C)(=O)=O)cc3)c2)cnc1N [Example 255, 3-amino-N-methyl-6-{3-[({[4-(methylsulfonyl)phenyl]methyl}amino)carbonyl]phenyl}pyrazine-2-carboxamide] | 50 to 1000 nM
30 | CNC(=O)c1nc(-c2cccc(C(=O)NCc3cc(Br)ccc3F)c2)cnc1N [Example 256, 3-amino-6-[3-({[(5-bromo-2-fluorophenyl)methyl]amino}carbonyl)phenyl]-N-methylpyrazine-2-carboxamide] | 50 to 1000 nM
31 | CNC(=O)c1nc(-c2cccc(C(=O)NCc3ccc(F)c(Br)c3)c2)cnc1N [Example 257, 3-amino-6-[3-({[(3-bromo-4-fluorophenyl)methyl]amino}carbonyl)phenyl]-N-methylpyrazine-2-carboxamide] | 50 to 1000 nM
32 | CNC(=O)c1nc(-c2cccc(C(=O)NCc3c(OC)cc(OC)cc3OC)c2)cnc1N [Example 258, 3-amino-N-methyl-6-{3-[({[2,4,6-tris(methyloxy)phenyl]methyl}amino)carbonyl]phenyl}pyrazine-2-carboxamide] | 50 to 1000 nM
33 | CNC(=O)c1nc(-c2cccc(C(=O)NCc3cccc(C)c3)c2)cnc1N [Example 259, 3-amino-N-methyl-6-[3-({[(3-methylphenyl)methyl]amino}carbonyl)phenyl]pyrazine-2-carboxamide] | 50 to 1000 nM
34 | CNC(=O)c1nc(-c2cccc(C(=O)NCc3ccc(Br)cc3F)c2)cnc1N [Example 260, 3-amino-6-[3-({[(4-bromo-2-fluorophenyl)methyl]amino}carbonyl)phenyl]-N-methylpyrazine-2-carboxamide] | 50 to 1000 nM
35 | CNC(=O)c1nc(-c2cccc(C(=O)NCc3cc(C)ccc3C)c2)cnc1N [Example 261, 3-amino-6-[3-({[(2,5-dimethylphenyl)methyl]amino}carbonyl)phenyl]-N-methylpyrazine-2-carboxamide] | 50 to 1000 nM

From patent US7704995B2 (Exelixis, Inc., priority 2003, dated 2010)
